Results reported in publication PMC6683251, “Flavanol Bioavailability in Two Cocoa Products with Different Phenolic Content. A Comparative Study in Humans” (Nutrients, 2019).

Experiment: Urinary excretion of flavanol metabolites (0-24 h) after a single serving of soluble cocoa product (HPLC-ESI-QToF-MS)
Type: in vivo, human
Details: mean ± SD, n = 13; for Excreted in urine, Total: 24 h urine; for Excreted in urine, Basal: basal urine (−2–0 h, before intake)
Procedure: They were non-smoker, non-vegetarian, non-pregnant women, who were not taking any medication or nutritional supplements, and were not suffering from any chronic pathology or gastrointestinal disorder. The sample size was estimated attending to similar previous bioavailability studies. The volunteers gave their informed consent prior to participation.
The present randomized, single-blind study was carried out at the Human Nutrition Unit (HNU) of the Institute of Food Science, Technology and Nutrition (ICTAN). Volunteers attended the HNU on two days, separated by two weeks. Three days previous to each visit, participants were instructed not to consume cocoa products (chocolate, soluble cocoa, etc.), juices, tea, wine, grape must, oranges, tangerines, apples, grapes, strawberries or other berries, beets, onions, soybeans and soy derivatives.
On each intervention day, volunteers arrived at the HNU after an overnight fast. […] The soluble cocoa products, either 15 g of CC or 25 g CC-PP, were dissolved in 200 mL of semi-skimmed milk following manufacturer’s preparation instructions. Plasma was separated by centrifugation (10 min, 3000 rpm, 4 °C) and stored at −80 °C until further analysis. […] A polyphenol-free breakfast, lunch and afternoon snack were provided 2 h, 4 h, and 8 h after consumption of cocoa products, and water and isotonic beverages were available ad libitum.
Urine samples were diluted with an equivalent volume of Milli-Q water (50%) and centrifuged at 14000 rpm (10 min, 4 °C). Supernatants were filtered (0.45 μm pore-size cellulose-acetate membrane filters) and a 5 µL aliquot was directly injected into the LC-ESI-QToF-MS equipment.
The test samples, either 30 μL of the plasma extract or 5 μL of diluted urine, were injected and separated using a mobile phase consisting of Milli-Q water (phase A) and acetonitrile (phase B), both containing 0.1% formic acid, at a flow rate of 0.3 mL/min. The mobile phase was initially programmed with 90% of solvent A and 10% of B. The elution program increased to 30% of solvent B in 10 min. Then, the initial conditions (10% solvent B) were recovered in 5 min and maintained for 5 min.
Due to the lack of standards for certain phase II metabolites, they were tentatively quantified using the calibration curves of their corresponding phenolic precursors. […] The rest of microbial metabolites identified, derivatives of hydroxyphenylpropionic, hydroxyphenylacetic, hydroxybenzoic and hippuric acids, were quantified using their respective commercially available standards. Urine concentration of the excreted metabolites was normalized by the volume excreted in each studied interval. […] Calibration curves were freshly prepared in a pool of both plasma and urine due to matrix effects.
Statistical analyses were carried out using the program SPSS (version 23.0, SPSS, Inc., IBM Company, New York, NY, USA). Significant differences between metabolites excreted in urine after consumption of CC and CC-PP cocoa products were evaluated based on non-parametric Wilcoxon test (p < 0.05). To determine the absorption and elimination of epicatechin metabolites after consumption of the soluble cocoa products, metabolite nutrikinetics were studied using the pharmacokinetic functions of Microsoft Excel, calculating the maximum concentration (Cmax), area under curve (AUC) and time to reach maximum concentration (Tmax). Data are expressed as mean ± standard deviation.

[1] = after CC-PP (68.25 mg flavanols)

| Compound | Excreted in urine, Total [1] | Excreted in urine, 0–4 h [1] | Excreted in urine, 4–8 h [1] | Excreted in urine, 8–12 h [1] | Excreted in urine, 12–24 h [1] | Excreted in urine, Total (after CC (19.80 mg flavanols)) | Excreted in urine, 0–4 h (after CC (19.80 mg flavanols)) | Excreted in urine, 4–8 h (after CC (19.80 mg flavanols)) | Excreted in urine, 8–12 h (after CC (19.80 mg flavanols)) | Excreted in urine, Basal (CC intervention) | Excreted in urine, Basal (CC-PP intervention) | Excreted in urine, 12–24 h (after CC (19.80 mg flavanols)) |
| --- | --- | --- | --- | --- | --- | --- | --- | --- | --- | --- | --- | --- |
| 4-Hydroxy-5-(hydroxyphenyl)valeric acid-glucuronide [HHPVA-glucuronide] | 1.052 ± 0.182 µmol | <L.Q. | 0.714 ± 0.088 µmol | 0.087 ± 0.019 µmol | 0.251 ± 0.075 µmol |  |  |  |  |  |  |  |
| COc1ccc([C@H]2Oc3cc(O)cc(OS(=O)(=O)O)c3C[C@H]2O)cc1O (single isomer, unassigned) [Epicatechin-methoxy-sulfate (isomer 3), Epicatechin-methoxy-sulfate] | 2.354 ± 0.402 µmol | 1.702 ± 0.243 µmol | 0.652 ± 0.148 µmol | <L.Q. | <L.Q. | 0.758 ± 0.125 µmol | 0.473 ± 0.089 µmol | 0.285 ± 0.036 µmol | <L.Q. |  |  |  |
| O=C(O)Cc1ccc(O)c(O)c1 [3,4-Dihydroxyphenylacetic acid] | 2.153 ± 0.401 µmol | 0.751 ± 0.057 µmol | 0.556 ± 0.096 µmol | 0.198 ± 0.037 µmol | 0.539 ± 0.196 µmol | 1.525 ± 0.974 µmol | 0.648 ± 0.505 µmol | 0.556 ± 0.379 µmol | 0.094 ± 0.033 µmol | 0.094 ± 0.032 µmol | 0.109 ± 0.015 µmol | 0.133 ± 0.020 µmol |
| O=C(O)CCc1ccc(O)c(O)c1 [3,4-Dihydroxyphenylpropionic acid] | 1.117 ± 0.131 µmol | 0.256 ± 0.027 µmol | 0.238 ± 0.028 µmol | 0.109 ± 0.016 µmol | 0.301 ± 0.029 µmol | 0.866 ± 0.148 µmol | 0.217 ± 0.051 µmol | 0.243 ± 0.039 µmol | 0.074 ± 0.017 µmol | 0.117 ± 0.024 µmol | 0.213 ± 0.031 µmol | 0.215 ± 0.016 µmol |
| COc1cc(CC(=O)O)ccc1O [3-Methoxy-4-hydroxyphenylacetic acid] | 0.648 ± 0.178 µmol | 0.188 ± 0.026 µmol | 0.124 ± 0.050 µmol | <L.Q. | 0.138 ± 0.016 µmol | 0.398 ± 0.118 µmol | 0.099 ± 0.054 µmol | 0.093 ± 0.028 µmol | <L.Q. | 0.103 ± 0.014 µmol | 0.198 ± 0.071 µmol | 0.103 ± 0.022 µmol |
| COc1cc(CCC(=O)O)ccc1O [3-Methoxy-4-hydroxyphenylpropionic acid] | 0.461 ± 0.138 µmol | 0.175 ± 0.054 µmol | <L.Q. | <L.Q. | 0.199 ± 0.052 µmol | 0.248 ± 0.071 µmol | 0.144 ± 0.044 µmol | <L.Q. | <L.Q. | 0.104 ± 0.027 µmol | 0.077 ± 0.032 µmol | <L.Q. |
| O=C(O)CCC(O)Cc1ccc(O)c(O)c1 (centres unmarked) [HDHPVA, 4-Hydroxy-5-(3′,4′-dihydroxyphenyl)valeric acid] | <L.Q. | <L.Q. | <L.Q. | <L.Q. | <L.Q. | <L.Q. |  | <L.Q. | <L.Q. |  |  | <L.Q. |
| O=C1CCC(Cc2cccc(O)c2)O1 (centres unmarked) [HPVL, 5-(3′-Hydroxyphenyl)-γ-valerolactone] | 0.104 ± 0.041 µmol | <L.Q. | 0.104 ± 0.041 µmol | <L.Q. | <L.Q. | <L.Q. * |  | <L.Q. | <L.Q. |  |  | <L.Q. |
| O=C1CCC(Cc2ccc(O[C@@H]3O[C@H](C(=O)O)[C@@H](O)[C@H](O)[C@H]3O)c(O)c2)O1 (some centres unmarked) [HPVL-4′-glucuronide, 5-(3′-Hydroxyphenyl)-γ-valerolactone-4′-glucuronide] | 0.961 ± 0.151 µmol | <L.Q. | 0.330 ± 0.111 µmol | 0.550 ± 0.015 µmol | 0.081 ± 0.025 µmol |  | <L.Q. |  | <L.Q. | <L.Q. | <L.Q. | <L.Q. |
| O=C(O)Cc1cccc(O)c1 [Hydroxyphenylacetic acid, 3-Hydroxyphenylacetic acid] | 2.862 ± 0.654 µmol | 0.631 ± 0.140 µmol | 0.678 ± 0.231 µmol | 0.434 ± 0.070 µmol | 0.534 ± 0.143 µmol | 2.208 ± 0.328 µmol | 0.408 ± 0.084 µmol | 0.605 ± 0.092 µmol | 0.225 ± 0.052 µmol | 0.369 ± 0.077 µmol | 0.585 ± 0.070 µmol | 0.600 ± 0.100 µmol |
| O=C(O)CCc1ccc(O)cc1 [Hydroxyphenylpropionic acid] | 1.204 ± 0.243 µmol | 0.350 ± 0.038 µmol | 0.356 ± 0.076 µmol | 0.140 ± 0.041 µmol | 0.284 ± 0.075 µmol | 0.883 ± 0.154 µmol | 0.226 ± 0.046 µmol | 0.259 ± 0.043 µmol | 0.077 ± 0.018 µmol | 0.118 ± 0.023 µmol | 0.074 ± 0.013 µmol | 0.203 ± 0.025 µmol |
| COc1ccc(/C=C/C(=O)O)cc1O [Isoferulic acid] | 0.686 ± 0.356 µmol | 0.164 ± 0.044 µmol | 0.160 ± 0.066 µmol | 0.152 ± 0.094 µmol | 0.210 ± 0.152 µmol | 0.522 ± 0.290 µmol | 0.086 ± 0.028 µmol | 0.096 ± 0.040 µmol | 0.088 ± 0.069 µmol | 0.170 ± 0.137 µmol | <L.Q. | 0.082 ± 0.016 µmol |
| O=C1CCC(Cc2cccc(OC3OC(C(=O)O)C(O)C(O)C3O)c2)O1 (centres unmarked) [PVL-3′glucuronide, 5-Phenyl-γ-valerolactone-3′-glucuronide] | 1.316 ± 0.648 µmol | 0.108 ± 0.045 µmol | 0.521 ± 0.191 µmol | 0.179 ± 0.063 µmol | 0.508 ± 0.349 µmol | 0.438 ± 0.255 µmol | <L.Q. | 0.233 ± 0.155 µmol | 0.126 ± 0.078 µmol |  | <L.Q. | 0.079 ± 0.022 µmol |
